# Key:
# Conditions in all cases: incubation time: 72 h
# MCF-10A [1] = assay: normalised response (% of control), CellTox Green; higher = less cell death (100 = DMSO, 0 = benzethonium chloride kill control)
# In short: (§1)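 Values are normalised signals, each belonging to one concentration of the series. Breast cancer cells (20 µl suspension) were seeded into 384-well plates with compound at 5 concentrations in 10-fold steps over a compound-specific 10,000-fold range and incubated 72 h. Readouts were CellTox Green fluorescence (485/520 nm), then CellTiter-Glo luminescence after 10 min at room temperature, with each plate set to 0.1 % DMSO as 100 and a positive kill control as 0.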
# HCC1599 [2] = assay: as above
# In short: as §1
# MDA-MB-231 [3] = assay: as above
# In short: as §1
# HCC1937 [4] = assay: as above
# In short: as §1
# Hs578T [5] = assay: as above
# In short: as §1
# MDA-MB-453 [6] = assay: as above
# In short: as §1
# BT-549 [7] = assay: as above
# In short: as §1
# HDQ-P1 [8] = assay: as above
# In short: as §1
# CAL-85-1 [9] = assay: as above
# In short: as §1
# HCC1143 [10] = assay: as above
# In short: as §1
# MDA-MB-436 [11] = assay: as above
# In short: as §1
# CAL-148 [12] = assay: as above
# In short: as §1
# CAL-120 [13] = assay: as above
# In short: as §1
# DU-4475 = assay: as above
# In short: as §1
# MDA-MB-468 = assay: normalised response (% of control), CellTiter-Glo; higher = more viable cells (100 = DMSO, 0 = benzethonium chloride kill control)
# In short: as §1
# MCF-10A [14] = assay: as above
# In short: as §1
# HCC1599 [15] = assay: as above
# In short: as §1
# MDA-MB-231 [16] = assay: as above
# In short: as §1
# CAL-51 = assay: as above
# In short: as §1
# HCC1937 [17] = assay: as above
# In short: as §1
# BT-474 = assay: as above
# In short: as §1
# Hs578T [18] = assay: as above
# In short: as §1
# MDA-MB-453 [19] = assay: as above
# In short: as §1
# BT-549 [20] = assay: as above
# In short: as §1
# MFM-223 = assay: as above
# In short: as §1
# HDQ-P1 [21] = assay: as above
# In short: as §1
# CAL-85-1 [22] = assay: as above
# In short: as §1
# HCC1143 [23] = assay: as above
# In short: as §1
# MDA-MB-436 [24] = assay: as above
# In short: as §1
# SK-BR-3 = assay: as above
# In short: as §1
# CAL-148 [25] = assay: as above
# In short: as §1
# CAL-120 [26] = assay: as above
# In short: as §1
SMILES,normalised response (MCF-10A [1]) [%],normalised response (HCC1599 [2]) [%],normalised response (MDA-MB-231 [3]) [%],normalised response (HCC1937 [4]) [%],normalised response (Hs578T [5]) [%],normalised response (MDA-MB-453 [6]) [%],normalised response (BT-549 [7]) [%],normalised response (HDQ-P1 [8]) [%],normalised response (CAL-85-1 [9]) [%],normalised response (HCC1143 [10]) [%],normalised response (MDA-MB-436 [11]) [%],normalised response (CAL-148 [12]) [%],normalised response (CAL-120 [13]) [%],normalised response (DU-4475) [%],normalised response (MDA-MB-468) [%],normalised response (MCF-10A [14]) [%],normalised response (HCC1599 [15]) [%],normalised response (MDA-MB-231 [16]) [%],normalised response (CAL-51) [%],normalised response (HCC1937 [17]) [%],normalised response (BT-474) [%],normalised response (Hs578T [18]) [%],normalised response (MDA-MB-453 [19]) [%],normalised response (BT-549 [20]) [%],normalised response (MFM-223) [%],normalised response (HDQ-P1 [21]) [%],normalised response (CAL-85-1 [22]) [%],normalised response (HCC1143 [23]) [%],normalised response (MDA-MB-436 [24]) [%],normalised response (SK-BR-3) [%],normalised response (CAL-148 [25]) [%],normalised response (CAL-120 [26]) [%]
O=C(O)CC[C@H]1CC[C@@](c2cc(F)ccc2F)(S(=O)(=O)c2ccc(Cl)cc2)CC1 [MK-0752] (100 nM),114,111,122,96,97.3,111,131,109,97,105,110,59,101,107,107,109,109,104,113,98.5,98.7,103,108,91.6,109,95.6,92,108,104,109,95.4,95.6
CCN(CC)CCOc1ccc(C(=C(Cl)c2ccccc2)c2ccccc2)cc1 [Clomifene] (1000 nM),80.3,100,96,82.8,102,104,114,90.2,99.8,82.3,83.7,104,99.7,99.3,103,101,92.7,99.2,95.2,93.8,98.5,94.3,94.2,95.5,100,95.9,94.2,102,104,101,106,102
C[C@]12C=CC(=O)C=C1CC[C@@H]1[C@@H]2C(=O)C[C@@]2(C)[C@H]1CC[C@]2(O)C(=O)CO [Prednisone] (1000 nM),98.8,97.7,116,113,105,100,120,94.4,103,105,101,73,102,101,103,108,113,103,120,101,104,110,106,95.4,101,100,92.9,102,104,103,105,102
O=C(c1cc(Cc2n[nH]c(=O)c3ccccc23)ccc1F)N1CCN(C(=O)C2CC2)CC1 [Olaparib] (1000 nM),101,94.9,100,109,83.4,112,124,71.5,102,93.3,60.6,92.9,97,99.7,91.8,92.3,101,88.7,98.5,95.6,87.6,97.5,132,94.9,101,96.6,101,94.8,75.2,92,83.1,92.3

# From the supplement of paper PMC4862054
